Like-named read-outs stand apart in the source and are kept apart here.
Legend:
hAC1 [1] = target: T1, hAC1 (Homo sapiens, UniProt Q08828); experiment: Cyclic AMP accumulation (HTRF) in HEK cells stably expressing AC1, stimulated with A23187; assay type: cell-based; settings: for inhibition at 30 µM: HEK293; for Selectivity AC1 vs AC8: AC8 IC50/AC1 IC50, without AC8 IC50, estimate based on IC50 ≥30 μM
T1 construct: expressed in transfected cells
Procedure: The screen was carried out using HEK cells stably expressing AC1 (HEK-AC1) and cyclic AMP accumulation was stimulated using the Ca^2+ ionophore, A23187 to selectively activate AC1.
Both AC1 and AC8 are robustly activated by Ca^2+/CaM under a variety of conditions, whereas the effects of Ca^2+/CaM on AC3 are modest and conditional requiring activation by G proteins.
The primary technology we employed to measure cAMP accumulation was a homogenous time-resolved fluorescence (HTRF) assay, the same technology utilized in the primary screen. […]
(§1) Briefly, cryopreserved cells were thawed, resuspended in optiMEM (Life Technologies), and plated in white, flat bottom, low-volume, tissue culture-treated 384 well plates (PerkinElmer, Shelton, Conn.). Plates with cells were incubated in a 37° C. humidified incubator for 1 h. Inhibitors were added and plates were incubated at room temperature for 30 min followed by the addition of AC stimulants in the presence of 500 μM IBMX. Cells were incubated at room temperature for 1 h and cAMP accumulation was measured using Cisbio's cAMP kit (Cisbio Bioassays, Bedford, Mass.) according to the manufacturer's instructions.

hAC8 = target: T2, hAC8 (Homo sapiens, UniProt P40145); experiment: Cyclic AMP accumulation (HTRF) in HEK cells stably expressing AC8, stimulated with A23187; assay type: cell-based; settings: for inhibition at 30 µM: HEK293; for hAC8 % Inhib: at 30 μM, negative values indicate a potentiated response
T2 construct: expressed in transfected cells
T2 sequence (P40145 whole entry): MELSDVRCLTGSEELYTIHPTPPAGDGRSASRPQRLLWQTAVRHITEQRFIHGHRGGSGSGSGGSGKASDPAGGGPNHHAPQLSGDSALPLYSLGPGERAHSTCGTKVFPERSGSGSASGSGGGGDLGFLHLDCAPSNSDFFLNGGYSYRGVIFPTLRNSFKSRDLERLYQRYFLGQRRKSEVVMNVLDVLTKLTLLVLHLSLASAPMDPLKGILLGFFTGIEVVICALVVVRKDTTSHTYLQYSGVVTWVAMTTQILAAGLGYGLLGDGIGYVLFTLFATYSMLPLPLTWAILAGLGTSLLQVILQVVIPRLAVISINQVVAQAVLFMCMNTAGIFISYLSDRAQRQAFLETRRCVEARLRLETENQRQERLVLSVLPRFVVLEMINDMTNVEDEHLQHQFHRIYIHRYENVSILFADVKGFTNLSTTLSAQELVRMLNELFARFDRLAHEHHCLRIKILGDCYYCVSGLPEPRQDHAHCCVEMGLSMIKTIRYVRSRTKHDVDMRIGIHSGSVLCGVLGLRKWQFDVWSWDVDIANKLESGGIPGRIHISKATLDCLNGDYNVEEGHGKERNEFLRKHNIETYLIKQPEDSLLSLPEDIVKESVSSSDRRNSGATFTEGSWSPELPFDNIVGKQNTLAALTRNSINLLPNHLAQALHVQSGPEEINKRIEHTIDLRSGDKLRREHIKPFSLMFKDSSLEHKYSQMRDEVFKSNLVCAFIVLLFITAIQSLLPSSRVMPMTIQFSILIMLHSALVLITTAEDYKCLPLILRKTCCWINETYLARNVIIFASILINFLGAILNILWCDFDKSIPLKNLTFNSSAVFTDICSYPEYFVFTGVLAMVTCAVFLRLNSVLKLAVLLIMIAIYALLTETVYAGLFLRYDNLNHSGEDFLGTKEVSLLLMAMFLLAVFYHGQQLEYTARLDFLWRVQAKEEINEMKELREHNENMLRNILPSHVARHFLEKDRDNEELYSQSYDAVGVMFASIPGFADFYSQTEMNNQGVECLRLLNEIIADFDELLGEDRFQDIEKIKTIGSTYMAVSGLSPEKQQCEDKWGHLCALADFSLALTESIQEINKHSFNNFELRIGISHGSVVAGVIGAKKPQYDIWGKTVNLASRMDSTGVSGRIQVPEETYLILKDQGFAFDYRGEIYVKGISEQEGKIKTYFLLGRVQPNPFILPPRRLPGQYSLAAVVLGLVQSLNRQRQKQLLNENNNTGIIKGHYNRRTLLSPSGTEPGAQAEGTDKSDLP
Procedure: Fresh powders of several robust inhibitors (>90% inhibition) were evaluated in multiple confirmation assays assessing the dose response relationship for inhibiting AC1 and AC8 activity. Confirmation assays used A23817 to selectively stimulate recombinant AC1 or AC8 in the HEK cell background (Cumbay and Watts (2001), J. Pharmacol Exp Ther 297:1201-1399). This approach takes advantage of one unique regulatory property of AC1 for the development of selective inhibitors. Both AC1 and AC8 are robustly activated by Ca^2+/CaM under a variety of conditions, whereas the effects of Ca^2+/CaM on AC3 are modest and conditional requiring activation by G proteins. Previous studies have identified unique Ca^2+/CaM binding domains as one possible site of interaction to achieve AC1 (vs. AC8) selectivity (Masada et al., 2012, Biochemistry 51:7917-7929).
The primary technology we employed to measure cAMP accumulation was a homogenous time-resolved fluorescence (HTRF) assay, the same technology utilized in the primary screen.
Human embryonic kidney (HEK) cells stably expressing AC1, AC8, or AC1 with the MOR were cultured in Dulbecco's Modified Eagle Medium (Life Technologies, Grand Island, N.Y.) supplemented with 5% bovine calf serum (Hyclone, Logan, Utah), 5% fetal clone I (Hyclone), Antibiotic-Antimycotic (Life Technologies), and G418 (Invivogen, San Diego, Calif.) (HEK-AC1), or hygromycin B (Fisher Scientific, Pittsburgh, Pa.) (HEK-AC8), or G418 and puromycin (Sigma-Aldrich) (HEK-AC1/MOR). Chinese hamster ovary (CHO) cells expressing the MOR (CHO-MOR) in the PathHunter® β-Arrestin GPCR assay platform were purchased from DiscoveRx (Freemont, Calif.). Cells were grown in Ham's F12 media supplemented with 1 mM L-glutamine (Thermo Scientific, West Palm Beach, Fla.), 10% fetal bovine serum (Hyclone), 50 Um′ penicillin, 50 μg/ml streptomycin (Life Technologies), G418 and hygromycin B. Cells were grown and frozen as previously described (J. M. Conley, et al., J Vis Exp, e51218 (2014)).
as §1, with “Cyclic AMP accumulation was measured as previously described (Brust, et al., J. Pharmacol. Exp. Ther. 352, 480-493(2015)). Briefly,” for “Briefly,”

hAC2 [2] = target: T3, hAC2 (Homo sapiens, UniProt Q08462); experiment: Cyclic AMP accumulation in stable HEK-AC2 cells, stimulated with 100 nM PMA; assay type: cell-based; settings: Table 1, at 30 μM, negative = potentiated, n = 2
T3 construct: expressed in transfected cells
T3 sequence (Q08462 whole entry): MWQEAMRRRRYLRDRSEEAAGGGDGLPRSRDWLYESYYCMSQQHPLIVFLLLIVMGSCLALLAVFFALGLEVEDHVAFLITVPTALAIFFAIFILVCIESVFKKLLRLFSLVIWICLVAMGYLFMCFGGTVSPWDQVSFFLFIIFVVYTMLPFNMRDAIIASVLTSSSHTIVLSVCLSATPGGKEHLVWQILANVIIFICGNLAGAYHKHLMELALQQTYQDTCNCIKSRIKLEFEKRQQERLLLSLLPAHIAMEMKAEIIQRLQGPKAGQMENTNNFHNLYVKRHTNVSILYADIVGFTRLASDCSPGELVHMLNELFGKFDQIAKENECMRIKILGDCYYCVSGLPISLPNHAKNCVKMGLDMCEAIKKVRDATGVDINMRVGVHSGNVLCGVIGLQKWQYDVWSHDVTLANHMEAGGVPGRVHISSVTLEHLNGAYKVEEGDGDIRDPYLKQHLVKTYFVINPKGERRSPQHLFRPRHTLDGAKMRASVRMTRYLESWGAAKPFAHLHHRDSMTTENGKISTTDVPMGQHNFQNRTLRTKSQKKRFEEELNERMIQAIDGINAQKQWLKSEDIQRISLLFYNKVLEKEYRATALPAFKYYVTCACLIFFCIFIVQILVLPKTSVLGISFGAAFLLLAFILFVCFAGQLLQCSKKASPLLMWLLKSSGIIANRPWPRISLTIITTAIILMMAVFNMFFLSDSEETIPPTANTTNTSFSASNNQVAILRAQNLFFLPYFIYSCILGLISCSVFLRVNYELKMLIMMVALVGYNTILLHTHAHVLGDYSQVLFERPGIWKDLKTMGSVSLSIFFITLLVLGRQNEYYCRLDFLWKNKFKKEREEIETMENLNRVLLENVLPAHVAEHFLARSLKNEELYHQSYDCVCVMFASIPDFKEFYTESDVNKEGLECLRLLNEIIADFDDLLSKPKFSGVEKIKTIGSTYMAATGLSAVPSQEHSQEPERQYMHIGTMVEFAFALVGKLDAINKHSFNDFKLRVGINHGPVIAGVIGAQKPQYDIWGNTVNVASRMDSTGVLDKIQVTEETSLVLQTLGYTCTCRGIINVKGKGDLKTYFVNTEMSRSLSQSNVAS
Procedure: as §1, with “Cyclic AMP accumulation was measured as previously described (Brust, et al., J. Pharmacol. Exp. Ther. 352, 480-493(2015)). Briefly,” for “Briefly,”

hAC5 [3] = target: T4, hAC5 (Homo sapiens, UniProt O95622); experiment: Cyclic AMP accumulation in stable HEK-AC5 cells, stimulated with 300 nM forskolin; assay type: cell-based; settings: Table 1, at 30 μM, negative = potentiated, n = 2
T4 construct: expressed in transfected cells
T4 sequence (O95622 whole entry): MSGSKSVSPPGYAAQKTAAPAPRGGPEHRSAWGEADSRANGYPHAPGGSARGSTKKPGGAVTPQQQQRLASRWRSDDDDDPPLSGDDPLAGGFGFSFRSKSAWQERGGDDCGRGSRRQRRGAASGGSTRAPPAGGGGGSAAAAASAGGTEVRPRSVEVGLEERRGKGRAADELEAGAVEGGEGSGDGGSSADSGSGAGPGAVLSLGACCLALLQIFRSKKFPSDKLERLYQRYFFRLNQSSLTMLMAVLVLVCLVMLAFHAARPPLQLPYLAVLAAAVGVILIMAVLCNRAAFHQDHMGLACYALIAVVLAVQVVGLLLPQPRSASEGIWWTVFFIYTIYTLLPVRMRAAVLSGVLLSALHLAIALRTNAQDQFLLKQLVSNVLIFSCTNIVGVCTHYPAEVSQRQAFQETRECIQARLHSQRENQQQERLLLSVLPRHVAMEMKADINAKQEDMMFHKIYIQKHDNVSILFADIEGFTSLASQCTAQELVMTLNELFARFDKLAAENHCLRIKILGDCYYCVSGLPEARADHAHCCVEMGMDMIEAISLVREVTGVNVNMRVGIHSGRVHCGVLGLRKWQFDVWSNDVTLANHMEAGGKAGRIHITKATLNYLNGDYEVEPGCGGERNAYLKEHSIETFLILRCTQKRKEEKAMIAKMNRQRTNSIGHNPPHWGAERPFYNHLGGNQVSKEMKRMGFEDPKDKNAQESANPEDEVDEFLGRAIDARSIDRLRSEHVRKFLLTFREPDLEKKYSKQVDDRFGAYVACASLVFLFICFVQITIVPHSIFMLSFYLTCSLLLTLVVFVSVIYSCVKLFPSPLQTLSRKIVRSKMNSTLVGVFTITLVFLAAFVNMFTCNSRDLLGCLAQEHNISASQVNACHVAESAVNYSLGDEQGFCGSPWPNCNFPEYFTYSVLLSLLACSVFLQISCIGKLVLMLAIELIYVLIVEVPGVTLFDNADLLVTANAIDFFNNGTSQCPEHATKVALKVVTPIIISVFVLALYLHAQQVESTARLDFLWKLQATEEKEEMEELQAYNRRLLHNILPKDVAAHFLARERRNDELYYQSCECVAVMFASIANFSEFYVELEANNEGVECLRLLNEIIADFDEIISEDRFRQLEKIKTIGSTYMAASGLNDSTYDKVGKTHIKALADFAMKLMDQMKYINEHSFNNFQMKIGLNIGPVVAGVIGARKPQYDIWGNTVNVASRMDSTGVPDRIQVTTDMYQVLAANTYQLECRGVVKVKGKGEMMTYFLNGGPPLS
Procedure: as §1, with “Cyclic AMP accumulation was measured as previously described (Brust, et al., J. Pharmacol. Exp. Ther. 352, 480-493(2015)). Briefly,” for “Briefly,”

HEK-AC1 cells [4] = tested on: HEK-AC1 cells
Procedure: Cell viability assays were conducted with HEK-AC1 cells following plating and compound incubation protocols identical to the procedures described above in “Cyclic AMP assays in cells”. Cell viability was measured as a percentage of vehicle using 2% Triton X-100 (Sigma-Aldrich) as a control. The CellTiter-Glo® Luminescent Cell Viability Assay kit from Promega (Madison, Wis.) was employed to assess cell viability according to the manufacturer's instructions. Luminescence counts were measured using a Synergy 4.

chronic pain responses [5] = settings: mice; literature; cited from earlier work
chronic pain responses [6] = settings: rats; literature; cited from earlier work
hAC1 [7] = target: T1, hAC1; settings: Table 1; data from Brust et al. 2017; cited from earlier work
hAC2 [8] = target: T3, hAC2; settings: Table 1; at 30 μM; 100 nM PMA; data from Brust et al. 2017; cited from earlier work
hAC5 [9] = target: T4, hAC5; settings: Table 1; at 30 μM; 300 nM forskolin; data from Brust et al. 2017; cited from earlier work
HEK-AC1 cells [10] = settings: data from Brust et al. 2017; cited from earlier work
[11] = Table 2, read-out: HEK-AC1 IC50
[12] = Table 1, stable HEK cells, A23187-stimulated cAMP, n ≥ 3
[13] = Table 1, stable HEK cells, A23187-stimulated cAMP, n ≥ 3, read-out: hAC1 IC50
[14] = Table 1, stable HEK cells, A23187-stimulated cAMP, n ≥ 3, read-out: hAC8 IC50

T1 sequence (Q08828 whole entry): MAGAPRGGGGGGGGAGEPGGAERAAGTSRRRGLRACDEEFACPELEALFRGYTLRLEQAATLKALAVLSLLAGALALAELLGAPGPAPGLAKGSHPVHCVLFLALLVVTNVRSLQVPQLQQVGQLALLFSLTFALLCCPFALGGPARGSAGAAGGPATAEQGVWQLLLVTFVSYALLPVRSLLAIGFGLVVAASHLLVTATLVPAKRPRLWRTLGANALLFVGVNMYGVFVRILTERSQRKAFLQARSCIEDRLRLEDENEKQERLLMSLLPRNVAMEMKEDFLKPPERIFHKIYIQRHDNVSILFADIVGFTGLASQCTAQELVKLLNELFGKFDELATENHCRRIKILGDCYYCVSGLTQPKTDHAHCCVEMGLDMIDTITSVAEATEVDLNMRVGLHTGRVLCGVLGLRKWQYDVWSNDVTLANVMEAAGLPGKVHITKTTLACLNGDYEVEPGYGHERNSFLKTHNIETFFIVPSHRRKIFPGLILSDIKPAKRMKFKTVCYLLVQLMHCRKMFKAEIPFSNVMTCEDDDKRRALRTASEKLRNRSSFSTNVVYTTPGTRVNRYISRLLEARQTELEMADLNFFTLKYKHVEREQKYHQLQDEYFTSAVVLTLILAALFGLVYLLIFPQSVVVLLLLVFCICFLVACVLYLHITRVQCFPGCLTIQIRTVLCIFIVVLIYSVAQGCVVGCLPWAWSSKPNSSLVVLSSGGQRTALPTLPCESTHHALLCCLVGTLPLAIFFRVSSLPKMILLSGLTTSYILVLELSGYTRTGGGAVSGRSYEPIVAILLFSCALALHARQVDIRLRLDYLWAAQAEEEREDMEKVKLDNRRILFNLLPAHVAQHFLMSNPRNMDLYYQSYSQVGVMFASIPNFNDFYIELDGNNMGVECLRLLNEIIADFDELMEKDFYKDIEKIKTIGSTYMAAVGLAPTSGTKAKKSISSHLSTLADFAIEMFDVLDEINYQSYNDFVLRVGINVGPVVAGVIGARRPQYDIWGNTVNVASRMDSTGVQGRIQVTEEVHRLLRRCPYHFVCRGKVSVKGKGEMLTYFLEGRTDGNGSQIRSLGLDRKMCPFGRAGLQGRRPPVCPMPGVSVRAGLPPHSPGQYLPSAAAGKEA

SMILES: Cc1cc(NC(=O)c2ccccc2F)n(-c2nc(=O)cc(C)[nH]2)n1 [AC10042, 2-Fluoro-N-(3-methyl-1-(6-methyl-4-oxo-1,4-dihydropyrimidin-2-yl)-1H-pyrazol-5-yl)benzamide]
- inhibition at 30 µM (hAC1 [1]; Table 2): 101 ± 0.7%
- IC50 (hAC1 [1]; [11]): 1.5 ± 0.3 µM
- inhibition at 30 µM (hAC8; Table 2): 9 ± 4%

SMILES: Cc1cc(NC(=O)c2ccco2)n(-c2nc(=O)cc(C)[nH]2)n1 [AC10043, N-(3-methyl-1-(6-methyl-4-oxo-1,4-dihydropyrimidin-2-yl)-1H-pyrazol-5-yl)furan-2-carboxamide]
- inhibition at 30 µM (hAC1 [1]; Table 2): 92 ± 2%
- IC50 (hAC1 [1]; [11]): 10.3 ± 2 µM
- inhibition at 30 µM (hAC8; Table 2): 16 ± 9%

SMILES: CCc1cc(=O)nc(-n2nc(C)cc2NC(=O)c2ccccc2F)[nH]1 [AC10048, N-(1-(6-ethyl-4-oxo-1,4-dihydropyrimidin-2-yl)-3-methyl-1H-pyrazol-5-yl)-2-fluorobenzamide]
- inhibition at 30 µM (hAC1 [1]; Table 2): 99 ± 2%
- IC50 (hAC1 [1]; [11]): 0.58 ± 0.2 µM
- inhibition at 30 µM (hAC8; Table 2): 19 ± 11%

SMILES: CCc1cc(=O)nc(-n2nc(C)cc2NC(=O)c2cccc(F)c2)[nH]1 [AC10049, N-(1-(6-ethyl-4-oxo-1,4-dihydropyrimidin-2-yl)-3-methyl-1H-pyrazol-5-yl)-3-fluorobenzamide]
- inhibition at 30 µM (hAC1 [1]; Table 2): 98 ± 1%
- IC50 (hAC1 [1]; [11]): 1.3 ± 0.2 µM
- inhibition at 30 µM (hAC8; Table 2): 26 ± 4%
- IC50 (hAC8; Table 2, read-out: HEK-AC8 IC50): 68 ± 10 µM

SMILES: CCc1cc(=O)nc(-n2nc(C)cc2NC(=O)C2CC2)[nH]1 [AC10050, N-(1-(6-ethyl-4-oxo-1,4-dihydropyrimidin-2-yl)-3-methyl-1H-pyrazol-5-yl)cyclopropanecarboxamide]
- inhibition at 30 µM (hAC1 [1]; Table 2): 79 ± 4%
- IC50 (hAC1 [1]; [11]): 16.7 ± 1 µM

SMILES: Cc1cc(NC(=O)C2CC2)n(-c2nc(=O)cc(C)[nH]2)n1 [AC10051, N-(3-methyl-1-(6-methyl-4-oxo-1,4-dihydropyrimidin-2-yl)-1H-pyrazol-5-yl)cyclopropanecarboxamide]
- inhibition at 30 µM (hAC1 [1]; Table 2): 4 ± 7%

SMILES: Cc1cc(NC(=O)c2cccc(F)c2)n(-c2nc(=O)cc(C)[nH]2)n1 [AC10057, 3-fluoro-N-(3-methyl-1-(6-methyl-4-oxo-1,4-dihydropyrimidin-2-yl)-1H-pyrazol-5-yl)benzamide]
- inhibition at 30 µM (hAC1 [1]; Table 2): 94 ± 1%
- IC50 (hAC1 [1]; [11]): 3.7 ± 0.2 µM
- inhibition at 30 µM (hAC8; Table 2): 9 ± 2%

SMILES: CCc1cc(=O)nc(-n2nc(C)cc2NC(=O)c2ccc(Cl)cc2)[nH]1 [AC10058, 4-chloro-N-(1-(6-ethyl-4-oxo-1,4-dihydropyrimidin-2-yl)-3-methyl-1H-pyrazol-5-yl)benzamide]
- inhibition at 30 µM (hAC1 [1]; Table 2): 99 ± 1%
- IC50 (hAC1 [1]; [11]): 1.2 ± 0.2 µM
- inhibition at 30 µM (hAC8; Table 2): 19 ± 4%

SMILES: CC1CC(C)CN(S(=O)(=O)c2ccc(C(=O)Nc3nnc(-c4cccs4)o3)cc2)C1 (stereo not shown) [Compound F0559-0346]
- Selectivity AC1 vs AC8 (hAC1 [1]): 2-fold
- hAC1 % Inhib (hAC1 [1]; [12]): 99 ± 1%
- IC50 (hAC1 [1]; [13]): 9.1 ± 2 µM
- hAC8 % Inhib (hAC8; Table 1): 74 ± 13%
- IC50 (hAC8; [14]): 17 ± 6 µM
- hAC2 % Inhib (hAC2 [2]): −6%
- hAC5 % Inhib (hAC5 [3]): 4%
- Viability % Veh (HEK-AC1 cells [4]): 118 ± 2 % Veh

SMILES: O=C(Nc1nnc(-c2ccc3c(c2)OCCO3)o1)c1ccc(Br)cc1 [Compound F0608-0011]
- Selectivity AC1 vs AC8 (hAC1 [1]): 9-fold
- hAC1 % Inhib (hAC1 [1]; [12]): 101 ± 1%
- IC50 (hAC1 [1]; [13]): 2 ± 0.2 µM
- hAC8 % Inhib (hAC8; Table 1): 79 ± 1%
- IC50 (hAC8; [14]): 18 ± 2 µM
- hAC2 % Inhib (hAC2 [2]): −7%
- hAC5 % Inhib (hAC5 [3]): −10%
- Viability % Veh (HEK-AC1 cells [4]): 125 ± 3 % Veh

SMILES: O=C(Nc1nnc(-c2ccc3c(c2)CCCC3)o1)c1ccccc1 [Compound F0608-0538]
- Selectivity AC1 vs AC8 (hAC1 [1]): 10-fold
- hAC1 % Inhib (hAC1 [1]; [12]): 101 ± 1%
- IC50 (hAC1 [1]; [13]): 2.1 ± 0.4 µM
- hAC8 % Inhib (hAC8; Table 1): 76 ± 8%
- IC50 (hAC8; [14]): 21 ± 4 µM
- hAC2 % Inhib (hAC2 [2]): −95%
- hAC5 % Inhib (hAC5 [3]): −34%
- Viability % Veh (HEK-AC1 cells [4]): 118 ± 6 % Veh

SMILES: CCc1cc(=O)[nH]c(-n2nc(C)cc2NC(=O)c2ccccc2F)n1 [Compound F2215-0213]
- hAC1 % Inhib (hAC1 [1]; [12]): 99 ± 1%
- IC50 (hAC1 [1]; [13]): 0.5 ± 0.1 µM
- hAC8 % Inhib (hAC8; Table 1): 20 ± 1%
- hAC2 % Inhib (hAC2 [2]): −70%
- hAC5 % Inhib (hAC5 [3]): 9%
- Viability % Veh (HEK-AC1 cells [4]): 101 ± 17 % Veh

SMILES: CCc1c(C)nc(-n2nc(C)cc2NC(=O)c2ccco2)[nH]c1=O [Compound F2215-0772]
- Selectivity AC1 vs AC8 (hAC1 [1]): >30-fold
- hAC1 % Inhib (hAC1 [1]; [12]): 100 ± 1%
- IC50 (hAC1 [1]; [13]): 0.9 ± 0.2 µM
- hAC8 % Inhib (hAC8; Table 1): 34 ± 7%
- hAC2 % Inhib (hAC2 [2]): 32%
- hAC5 % Inhib (hAC5 [3]): 13%
- Viability % Veh (HEK-AC1 cells [4]): 93 ± 1 % Veh

SMILES: CSc1ccccc1C(=O)Nc1cc(C)nn1-c1nc2c(c(=O)[nH]1)CCC2 [Compound F2215-0954]
- Selectivity AC1 vs AC8 (hAC1 [1]): >5-fold
- hAC1 % Inhib (hAC1 [1]; [12]): 99 ± 1%
- IC50 (hAC1 [1]; [13]): 5.9 ± 0.4 µM
- hAC8 % Inhib (hAC8; Table 1): 35 ± 8%
- hAC2 % Inhib (hAC2 [2]): −185%
- hAC5 % Inhib (hAC5 [3]): −21%
- Viability % Veh (HEK-AC1 cells [4]): 106 ± 14 % Veh

SMILES: CSc1cccc(C(=O)Nc2nnc(C3CCCCC3)o2)c1 [Compound F2289-0107]
- Selectivity AC1 vs AC8 (hAC1 [1]): >4-fold
- hAC1 % Inhib (hAC1 [1]; [12]): 99 ± 1%
- IC50 (hAC1 [1]; [13]): 7.5 ± 2 µM
- hAC8 % Inhib (hAC8; Table 1): 31 ± 2%
- hAC2 % Inhib (hAC2 [2]): −210%
- hAC5 % Inhib (hAC5 [3]): −28%
- Viability % Veh (HEK-AC1 cells [4]): 117 ± 1 % Veh

SMILES: Nc1ncnc2c1ncn2CCNCCCCCO [NB001]
- chronic pain responses (inflammatory and neuropathic) (chronic pain responses [5]): markedly attenuated chronic pain responses
- chronic pain responses (inflammatory and neuropathic) (chronic pain responses [6]): markedly attenuated chronic pain responses

SMILES: O=c1cc(C(Cl)(Cl)Cl)oc2ccc(Cl)cc12 [ST034307, 6-chloro-2-(trichloromethyl)-4H-chromen-4-one]
- hAC1 % Inhib (hAC1 [7]): 108 ± 10%
- hAC2 % Inhib (hAC2 [8]): −142%
- hAC5 % Inhib (hAC5 [9]): −44%
- Viability % Veh (HEK-AC1 cells [10]): 85 ± 6 % Veh

— patent US11667623B2, “Scaffold of adenylyl cyclase inhibitors for chronic pain and opioid dependence” (Purdue Research Foundation, priority 2017, dated 2023)
